{"source": "patent US4758580A", "about": "“Inhibiting growth of tumors with certain substituted phenoxy dimethyl alkanoic acids, esters or salts” (Yamanouchi Pharmaceutical Co., Ltd., priority 1985, dated 1988)", "key": {"Bowes (melanoma)": {"system": "Bowes (melanoma)", "experiment": "In vitro cytotoxicity against human tumor cells, Bowes", "type": "cell-based", "conditions": "72 h", "method": "(§1) A suspension of cells in a culture medium was transferred into wells in a microplate in an amount of 5×10^4 cells/well. Test sample diluted with a culture medium was added to the suspension in each well, and the mixture was incubated at 37° C. for 3 days in an atmosphere of air containing 5% carbon dioxide. After skimming, sticking cells were dyed which crystalviolet for 10 minutes. After washing with water, 1% sodium lauryl sulfate solution was added to each well, and the absrobancy (optical density) at […] was measured. \"% inhibition\" was calculated from the following equation. [formula]"}, "[1]": {"system": "KB (nasal cavity & pharynx cancer)", "experiment": "In vitro cytotoxicity against human tumor cells, KB", "type": "cell-based", "conditions": "72 h", "method": "as §1"}, "MM-46 ascites tumor": {"system": "MM-46 ascites tumor", "experiment": "Anti-tumor test against mice mammary cancer MM-46 ascites tumor", "type": "in vivo, C3 H/He/CRJ mice", "method": "(§2) MM-46 tumor cells, 1×10^6, on Day 7 after intraperitoneal transplantation to C3 H/He/CRJ mice (5 week age, male) of 10 mice each being grouped in one. The active component was intraperitoneally administered in a definite dose 24 hours after the transplantation according to the schedule shown in Table 5. An effect of tumor growth inhibition was evaluated by a percentage of the median survival time of the administered group versus that of the control group, according to the following equation.\n(§3) T: median survival day of the administered group\n(§4) C: median survival day of the control group"}, "[2]": {"system": "liver cancer (MH-134) cells", "experiment": "Inhibition of spontaneous metastasis (to the lymph node) of liver cancer (MH-134) cells in mice", "type": "in vivo, C3 H/He/SLC mice", "conditions": "20th day", "method": "(a) Inhibition of spontaneous metastasis (to the lymph node) of liver cancer (MH-134) cells in mice\nMH-134 tumor cells, 1×10^6, on Day 7 after intraperitoneal transplantation to C3 H/He/SLC mice were transplanted to the right leg. On the 11th day after the transplantation, the right leg portion wherein the cancer cells were transplanted were cut off. The test compounds were administered orally in a definite dose 24 hours after the transplantation. In order to confirm metastasis-inhibiting effect, on 20th day of the transplantation the mice were anatomised to observe the metastasis to the lymph node in the inguinal portion. [formula] Further, the weight of the lymph node metastasis tumor in the inguinal portion of anatomised mice was measured. [formula]"}, "[3]": {"system": "Meth A (methylcholanthrene-induced cancer)", "experiment": "In vitro cytotoxicity against mouse tumor cells, Meth A", "type": "cell-based", "conditions": "Meth-A, 72 h", "method": "(§5) A suspension of cells in a culture medium was transferred into wells in a microplate in an amount of 1×10^5 cells/wall. Test sample diluted with a culture medium was added to the suspension in each well, and the mixture was incubated on the medium at 37° C. for 3 days in atmosphere of air containing 5% carbon dioxide. Thereafter, the incubated cells were recovered from the microplate and the number of live cells was counted by the dye exclusion test using a 0.5% solution of trypan blue and by using a hemocytomer."}, "Ehrlich ascites tumor": {"system": "Ehrlich ascites tumor", "experiment": "Anti-tumor effect against Ehrlich ascites tumor", "type": "in vivo, ddY/SLC mice", "conditions": "25 mg/kg i.p., 1-9 Days", "method": "as §2, with “Ehlrich” for “MM-46”, “ddY/SLC mice were intraperitoneally transplanted to ddY/SLC” for “C3 H/He/CRJ”, “4.” for “5.”, “day” for “time”\nas §3, §4"}, "Ehrlich (carcinoma)": {"system": "Ehrlich (carcinoma)", "experiment": "In vitro cytotoxicity against mouse tumor cells, Ehrlich", "type": "cell-based", "conditions": "Ehrlich, 72 h", "method": "as §5"}, "ACHN (kidney cancer)": {"system": "ACHN (kidney cancer)", "experiment": "In vitro cytotoxicity against human tumor cells, ACHN", "type": "cell-based", "conditions": "72 h", "method": "as §1"}, "Ehrlich solid tumor": {"system": "Ehrlich solid tumor", "experiment": "Anti-tumor test against Ehrlich solid tumor", "type": "in vivo, ddY/SLC mice", "method": "Ehrlich tumor cells, 2×10^6, on Day 7 after intraperitoneal transplantation to ddY/SLC mice were subcutaneously transplanted in the left abdomen of ddY/SLC mice (5 week age, male), 10 each grouped into one. The active component was intraperitoneally or orally administered in a definite dose 24 hours after the transplantation, according to the schedule shown in Table 1 (A), (B) or (C). An effect of inhibiting growth of tumor was compared, by measuring the long diameter and short diameter of the tumor on 14, 20 and 21 Days after the transplantation, calculating the tumor size (mm^2) and determining a tumor growth inhibition rate of the group administered with the active component to the control group according to the following equation:\nGrowth inhibition rate (%)=(C-T)/C×100\nT: means tumor size (mm^2) in the active component-administered group\nC: mean tumor size (mm^2) in the control group"}, "L-1210": {"system": "L-1210", "experiment": "In vitro cytotoxicity against mouse tumor cells, L-1210", "type": "cell-based", "conditions": "L1210, 72 h", "method": "as §5"}, "MH 134 (liver cancer)": {"system": "MH 134 (liver cancer)", "experiment": "In vitro cytotoxicity against mouse tumor cells, MH 134", "type": "cell-based", "conditions": "MH 134, 72 h", "method": "as §5"}, "[4]": {"conditions": "6.25 mg/kg i.p., 1, 2, 3, 4 and 6 Days"}, "[5]": {"conditions": "12.5 mg/kg i.p., 1, 2, 3, 4 and 6 Days"}, "[6]": {"conditions": "25 mg/kg i.p., 1, 2, 3, 4 and 6 Days"}, "[7]": {"conditions": "50 mg/kg oral, 1, 3, 5, 7, 9, 11, 13 and 15 days"}, "[8]": {"conditions": "100 mg/kg oral, 1, 3, 5, 7, 9, 11, 13 and 15 days"}, "[9]": {"conditions": "Day 14, 2.5 mg/kg i.p., Days 1, 2, 3, 5 & 6"}, "[10]": {"conditions": "Day 14, 12.5 mg/kg i.p., Days 1, 2, 3, 4, 6, 7, 8, 9"}, "[11]": {"conditions": "Day 14, 25 mg/kg i.p., Days 1, 2, 3, 4 & 7"}, "[12]": {"conditions": "Day 14, 25 mg/kg i.p., Days 1, 2, 3, 4, 6, 7, 8, 9"}, "[13]": {"conditions": "Day 21, 2.5 mg/kg i.p., Days 1, 2, 3, 5 & 6"}, "[14]": {"conditions": "Day 21, 12.5 mg/kg i.p., Days 1, 2, 3, 4, 6, 7, 8, 9"}, "[15]": {"conditions": "Day 21, 25 mg/kg i.p., Days 1, 2, 3, 4 & 7"}, "[16]": {"conditions": "Day 21, 25 mg/kg i.p., Days 1, 2, 3, 4, 6, 7, 8, 9"}}, "data": [{"smiles": "O=c1[nH]cc(F)c(=O)[nH]1", "note": "[5-Fluorouracil, reference compound]", "values": [{"measurement": "IC50", "setting": "Bowes (melanoma)", "value": 0.61, "unit": "µg/mL"}, {"measurement": "IC50", "setting": "[1]", "value": 1.75, "unit": "µg/mL"}, {"measurement": "Median Survival Day", "setting": "MM-46 ascites tumor; [4]", "value": 16.0, "unit": "days"}, {"measurement": "Survivors (90 days)", "setting": "MM-46 ascites tumor; [4]", "value": "0/10"}, {"measurement": "T/C (median survival)", "setting": "MM-46 ascites tumor; [4]", "value": 213.3, "unit": "%"}, {"measurement": "Median Survival Day", "setting": "MM-46 ascites tumor; [5]", "value": 17.0, "unit": "days"}, {"measurement": "Survivors (90 days)", "setting": "MM-46 ascites tumor; [5]", "value": "0/10"}, {"measurement": "T/C (median survival)", "setting": "MM-46 ascites tumor; [5]", "value": 226.7, "unit": "%"}, {"measurement": "Median Survival Day", "setting": "MM-46 ascites tumor; [6]", "value": 20.0, "unit": "days"}, {"measurement": "Survivors (90 days)", "setting": "MM-46 ascites tumor; [6]", "value": "0/10"}, {"measurement": "T/C (median survival)", "setting": "MM-46 ascites tumor; [6]", "value": 266.7, "unit": "%"}, {"measurement": "Growth inhibition of the metastasis tumor", "setting": "[2]; [7]", "value": 48.7, "unit": "%"}, {"measurement": "Metastasis-inhibition rate", "setting": "[2]; [7]", "value": 17.7, "unit": "%"}, {"measurement": "Growth inhibition of the metastasis tumor", "setting": "[2]; [8]", "value": 74.2, "unit": "%"}, {"measurement": "Metastasis-inhibition rate", "setting": "[2]; [8]", "value": 41.2, "unit": "%"}, {"measurement": "IC50", "setting": "[3]", "value": 0.1, "unit": "µg/mL"}, {"measurement": "Median Survival Day", "setting": "Ehrlich ascites tumor", "value": 24.5, "unit": "days"}, {"measurement": "No. of 40-day Survivors", "setting": "Ehrlich ascites tumor", "value": "0/8"}, {"measurement": "T/C (median survival)", "setting": "Ehrlich ascites tumor", "value": 163.3, "unit": "%"}, {"measurement": "IC50", "setting": "Ehrlich (carcinoma)", "value": 0.05, "unit": "µg/mL"}, {"measurement": "IC50", "setting": "ACHN (kidney cancer)", "value": 0.1, "unit": "µg/mL"}, {"measurement": "Growth Inhibition Rate", "setting": "Ehrlich solid tumor; [9]", "value": 42.9, "unit": "%"}, {"measurement": "Size of Tumor", "setting": "Ehrlich solid tumor; [9]", "value": "133.7 ± 61.1", "unit": "mm^2"}, {"measurement": "Growth Inhibition Rate", "setting": "Ehrlich solid tumor; [10]", "value": 44.1, "unit": "%"}, {"measurement": "Size of Tumor", "setting": "Ehrlich solid tumor; [10]", "value": "142.6 ± 36.9", "unit": "mm^2"}, {"measurement": "Growth Inhibition Rate", "setting": "Ehrlich solid tumor; [11]", "value": 40.0, "unit": "%"}, {"measurement": "Size of Tumor", "setting": "Ehrlich solid tumor; [11]", "value": "86.7 ± 35.1", "unit": "mm^2"}, {"measurement": "Growth Inhibition Rate", "setting": "Ehrlich solid tumor; [12]", "value": 54.4, "unit": "%"}, {"measurement": "Size of Tumor", "setting": "Ehrlich solid tumor; [12]", "value": "116.3 ± 44.0", "unit": "mm^2"}, {"measurement": "Growth Inhibition Rate", "setting": "Ehrlich solid tumor; [13]", "value": 42.4, "unit": "%"}, {"measurement": "Size of Tumor", "setting": "Ehrlich solid tumor; [13]", "value": "306.8 ± 166.8", "unit": "mm^2"}, {"measurement": "Growth Inhibition Rate", "setting": "Ehrlich solid tumor; [14]", "value": 34.2, "unit": "%"}, {"measurement": "Size of Tumor", "setting": "Ehrlich solid tumor; [14]", "value": "280.6 ± 68.9", "unit": "mm^2"}, {"measurement": "Growth Inhibition Rate", "setting": "Ehrlich solid tumor; [15]", "value": 57.5, "unit": "%"}, {"measurement": "Size of Tumor", "setting": "Ehrlich solid tumor; [15]", "value": "217.8 ± 126.2", "unit": "mm^2"}, {"measurement": "Growth Inhibition Rate", "setting": "Ehrlich solid tumor; [16]", "value": 40.8, "unit": "%"}, {"measurement": "Size of Tumor", "setting": "Ehrlich solid tumor; [16]", "value": "252.3 ± 100.3", "unit": "mm^2"}, {"measurement": "IC50", "setting": "L-1210", "value": 0.06, "unit": "µg/mL"}, {"measurement": "IC50", "setting": "MH 134 (liver cancer)", "value": 0.009, "unit": "µg/mL"}]}]}
